From the supplement of paper PMC10307832

What was measured:
Test in all cases: relative viability (nuclei count vs DMSO), 5 days (fraction); higher = more cells survive
[1] = compound: CC1CC(=O)N(C2=CN=C(N=C2N1C3CCCC3)NC4=C(C=C(C=C4)C(=O)NC5CCN(CC5)C)OC)C [NPK76-II-72-1] + CC1(C)CCC(c2ccc(Cl)cc2)=C(CN2CCN(c3ccc(C(=O)NS(=O)(=O)c4ccc(N[C@H](CCN5CCOCC5)CSc5ccccc5)c(S(=O)(=O)C(F)(F)F)c4)cc3)CC2)C1 [Navitoclax] (partner 0.5 µM)
In short: (§1)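 Five library-drug doses in √10 steps were combined with a fixed anchor-drug dose, or a single drug was given alone, by pin tool to lung cancer cell lines in 1536-well plates the day after seeding. Nuclei were stained and counted after 5 days. Relative viability is the nuclei count in treated wells over that in vehicle wells, taken as the median of duplicate plates.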

[2] = compound: CC1CC(=O)N(C2=CN=C(N=C2N1C3CCCC3)NC4=C(C=C(C=C4)C(=O)NC5CCN(CC5)C)OC)C [NPK76-II-72-1] + COc1cc2c(Oc3ccc(NC(=O)C4(C(=O)Nc5ccc(F)cc5)CC4)cc3F)ccnc2cc1OCCCN1CCOCC1 [Foretinib] (partner 0.25 µM)
In short: as §1

BI-2536 = compound: CC[C@@H]1C(=O)N(C)c2cnc(Nc3ccc(C(=O)NC4CCN(C)CC4)cc3OC)nc2N1C1CCCC1 [BI-2536]
In short: (§2)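 Vehicle-anchored 1536-well plates of lung cancer cell lines, held overnight at 37 °C, were pinned with five library-drug doses (not always all listed) spaced by √10. No medium change followed over the next 5 days, after which the cells were fixed, permeabilised and Hoechst-stained together and imaged at 4×. Nuclei were counted with MetaXpress, and viability is treated-well nuclei over vehicle-well nuclei, taken as a median across plates. Plates passed with control CV below 25% and at least one doubling.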

NPK76-II-72-1 = compound: CC1CC(=O)N(C2=CN=C(N=C2N1C3CCCC3)NC4=C(C=C(C=C4)C(=O)NC5CCN(CC5)C)OC)C [NPK76-II-72-1]
In short: as §2

Cell Line | relative viability ([1]; first compound 0.01 µM) | relative viability ([1]; first compound 0.03162 µM) | relative viability ([1]; first compound 0.1 µM) | relative viability ([1]; first compound 0.3162 µM) | relative viability ([1]; first compound 1 µM) | relative viability ([2]; first compound 0.01 µM) | relative viability ([2]; first compound 0.03162 µM) | relative viability ([2]; first compound 0.1 µM) | relative viability ([2]; first compound 0.3162 µM) | relative viability ([2]; first compound 1 µM) | relative viability (BI-2536; 0.01 µM) | relative viability (BI-2536; 0.03162 µM) | relative viability (BI-2536; 0.1 µM) | relative viability (BI-2536; 0.3162 µM) | relative viability (BI-2536; 1 µM) | relative viability (NPK76-II-72-1; 0.01 µM) | relative viability (NPK76-II-72-1; 0.03162 µM) | relative viability (NPK76-II-72-1; 0.1 µM) | relative viability (NPK76-II-72-1; 0.3162 µM) | relative viability (NPK76-II-72-1; 1 µM)
NCI-H1944 | 0.997 | 1.02 | 1.05 | 0.971 | 1.06 | 0.9 | 0.936 | 0.899 | 0.808 | 0.992 | 0.902 | 1.07 | 0.649 | 0.203 | 0.194 | 0.931 | 0.974 | 0.92 | 0.921 | 1.08
EPLC-272H | 1.06 | 0.97 | 1.12 | 1.09 | 1.35 | 0.552 | – | 0.69 | 0.852 | 0.729 | 0.852 | 0.707 | 0.117 | 0.26 | 0.0971 | 0.96 | 0.951 | 1.06 | 0.86 | 1.07
EBC-1 | 0.35 | 0.36 | 0.376 | 0.417 | 0.485 | 0.103 | 0.121 | 0.0919 | 0.114 | 0.108 | 1.04 | 0.804 | 0.432 | 0.224 | 0.202 | 0.917 | 1.02 | 0.94 | 0.984 | 1.07
NCI-H1915 | 0.749 | 0.795 | 0.786 | 0.736 | 0.826 | 1.09 | 1.13 | 1.1 | 1.06 | 1.09 | 0.977 | 0.932 | 0.544 | 0.0978 | 0.117 | 0.984 | 1.1 | 1 | 0.882 | 0.996
NCI-H596 | 0.862 | 1.01 | 0.828 | 0.965 | 1.04 | 0.907 | 1.01 | 0.824 | 0.819 | 0.842 | 0.963 | 1.11 | 0.747 | 0.402 | 0.286 | 0.99 | 0.97 | 1.02 | 1.02 | 1.01
NCI-H322M | 1.19 | 1.2 | 1.18 | 1.24 | 1.32 | 1.06 | 1.09 | 0.976 | 0.923 | 0.978 | 0.99 | 0.889 | 0.725 | 0.497 | 0.298 | 0.908 | 0.997 | 1.01 | 0.999 | 1.01
NCI-H1299 | 1.04 | 1.05 | 1.01 | 1.03 | 1.04 | 1.11 | 1.12 | 1.2 | 1.07 | 1.03 | 0.968 | 1.05 | 0.924 | 0.291 | 0.266 | 1 | 1.03 | 1.01 | 1.01 | 1.02
NCI-H2228 | 0.509 | 1.06 | 1.14 | 0.794 | 0.932 | 0.845 | 1.07 | 0.794 | 0.914 | 0.832 | 0.972 | 0.991 | 0.279 | 0.142 | 0.228 | 0.945 | 0.974 | 1.08 | 0.883 | 1.06
IA-LM | 0.752 | 1.17 | 0.67 | 0.733 | 1 | 1.06 | 1.18 | 1.18 | 1.12 | 1.26 | 0.954 | 0.912 | 0.649 | 0.0924 | 0.061 | 0.871 | 0.836 | 0.919 | 0.842 | 1.14
NCI-H647 | 0.986 | 1.05 | 1.23 | 1.11 | 1.2 | 1.12 | 1.19 | 1.35 | 1.04 | 1.19 | 0.925 | 0.874 | 0.161 | 0.0642 | 0.0923 | 0.886 | 0.971 | 1.01 | 1.03 | 1.06
SK-MES-1 | 1.19 | 1.34 | 1.28 | 1.24 | 1.31 | 0.975 | 0.957 | 0.877 | 0.808 | 0.912 | 1.07 | 0.975 | 0.614 | 0.196 | 0.179 | 0.986 | 1.03 | 0.989 | 1.01 | 1.09
NCI-H2170 | 0.615 | 0.558 | 0.565 | – | 0.643 | 0.909 | 0.975 | 1.01 | 0.885 | 1.06 | 0.971 | 0.896 | 0.273 | 0.204 | 0.204 | 0.939 | 0.977 | 0.928 | 0.71 | 1.11
NCI-H2085 | 1.11 | 1.12 | 1.06 | 1.06 | 1.19 | 0.792 | 0.923 | 0.902 | 0.781 | 1.15 | 1.01 | 0.976 | 0.798 | 0.222 | 0.333 | 0.921 | 1.02 | 0.961 | 0.952 | 1
SW 1573 | 1.03 | 0.973 | 0.812 | 0.948 | 0.988 | 0.997 | 1.02 | 0.914 | 0.963 | 0.824 | 1.05 | 0.921 | 0.487 | 0.131 | 0.134 | 0.902 | 1 | 0.988 | 0.956 | 0.969
NCI-H727 | 0.372 | 0.397 | 0.572 | 0.494 | 0.652 | 0.93 | 1.04 | 0.783 | 1.14 | 0.897 | 1.02 | 0.998 | 0.764 | 0.512 | 0.31 | 0.882 | 1.03 | 0.836 | 1.02 | 0.976
NCI-H441 | 0.634 | 0.946 | 0.671 | 0.533 | 0.73 | 0.931 | 1.09 | 0.785 | 0.823 | 1.16 | 0.874 | 0.503 | 0.281 | 0.191 | 0.224 | 1.04 | 1.12 | 1.03 | 0.914 | 1.04
